Experimental data reported in patent US20210395239A1 (Hoffmann-La Roche Inc., priority 2018, published 2021).

Molecular target: T1, human TLR8 (Homo sapiens, UniProt Q9NR97)
T1 construct: host or cells: HEK293 (HEK-Blue hTLR8)
T1 sequence (Q9NR97 27-1041): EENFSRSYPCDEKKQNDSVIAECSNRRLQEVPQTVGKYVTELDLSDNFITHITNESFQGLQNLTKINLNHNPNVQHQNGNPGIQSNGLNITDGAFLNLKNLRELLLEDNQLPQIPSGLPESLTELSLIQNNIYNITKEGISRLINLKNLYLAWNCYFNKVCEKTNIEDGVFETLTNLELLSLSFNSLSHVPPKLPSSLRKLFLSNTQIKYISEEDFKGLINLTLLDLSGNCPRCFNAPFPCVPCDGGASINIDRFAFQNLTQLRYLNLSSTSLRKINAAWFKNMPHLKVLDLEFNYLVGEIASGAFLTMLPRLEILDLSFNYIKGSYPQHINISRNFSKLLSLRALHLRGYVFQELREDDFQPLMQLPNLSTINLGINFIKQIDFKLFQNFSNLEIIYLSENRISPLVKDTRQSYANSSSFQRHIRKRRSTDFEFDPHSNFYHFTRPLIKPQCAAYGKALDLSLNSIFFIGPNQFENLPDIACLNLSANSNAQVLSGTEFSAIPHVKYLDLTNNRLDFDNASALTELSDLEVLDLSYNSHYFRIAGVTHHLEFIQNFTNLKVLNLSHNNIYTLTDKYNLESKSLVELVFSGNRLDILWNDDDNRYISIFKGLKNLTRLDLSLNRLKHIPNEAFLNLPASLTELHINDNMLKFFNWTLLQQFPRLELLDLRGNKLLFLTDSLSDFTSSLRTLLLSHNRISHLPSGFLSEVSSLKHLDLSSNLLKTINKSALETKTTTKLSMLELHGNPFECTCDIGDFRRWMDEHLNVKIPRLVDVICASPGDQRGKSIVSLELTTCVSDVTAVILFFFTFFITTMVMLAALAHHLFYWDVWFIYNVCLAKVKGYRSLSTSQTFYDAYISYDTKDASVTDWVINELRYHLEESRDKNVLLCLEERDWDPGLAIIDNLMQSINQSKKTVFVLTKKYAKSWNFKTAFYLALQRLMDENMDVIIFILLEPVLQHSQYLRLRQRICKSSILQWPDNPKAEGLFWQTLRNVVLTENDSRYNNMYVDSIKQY
Test: HEK293-Blue-hTLR-8 cells assay (SEAP reporter, R848 stimulation)
Format: cell-based
Details: HEK293-Blue-hTLR8 cells, R848, 20 hrs; read-out: HEK/hTLR8 IC50
Summary of the method: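 HEK293-Blue-hTLR8 cells (NF-κB/AP-1-driven SEAP) incubated 20 h at 37° C with serially diluted compound (1% DMSO) plus R848 stimulation. Supernatant SEAP measured with QUANTI-Blue, 2 h at 37° C, absorbance 620–655 nm.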

| IC50 [nM] | Structure (SMILES) |
| --- | --- |
| 10 | C[C@@H]1CN(c2ccc(C#N)c3ncccc23)C[C@H](CN2CCN(c3ccc(N4CCNCC4)cn3)CC2)O1 [Example 8, 5-[(2R,6S)-2-methyl-6-[[4-(5-piperazin-1-yl-2-pyridyl)piperazin-1-yl]methyl]morpholin-4-yl]quinoline-8-carbonitrile] |
| 9 | Cc1nc(N2CCNCC2)nc(N2CCN(C[C@H]3CN(c4ccc(C#N)c5ncccc45)C[C@@H](C)O3)CC2)c1C [Example 46, 5-[(2S,6R)-2-[[4-(5,6-dimethyl-2-piperazin-1-yl-pyrimidin-4-yl)piperazin-1-yl]methyl]-6-methyl-morpholin-4-yl]quinoline-8-carbonitrile] |
| 5 | C[C@@H]1CN(c2ccc(C#N)c3ncccc23)C[C@H](CN2CCN(c3ccnc(N4CCN(C(=O)[C@@H]5CCCN5)CC4)n3)CC2)O1 [Example 31, 5-[(2R,6S)-2-methyl-6-[[4-[2-[4-[(2S)-pyrrolidine-2-carbonyl]piperazin-1-yl]pyrimidin-4-yl]piperazin-1-yl]methyl]morpholin-4-yl]quinoline-8-carbonitrile] |
| 8 | Cc1cc(N2CCN(C[C@H]3CN(c4ccc(C#N)c5ncccc45)C[C@@H](C)O3)CC2)nc(N2CCNCC(O)C2)n1 (stereo partly drawn) [Example 66, 5-[(2S,6R)-2-[[4-[2-(6-hydroxy-1,4-diazepan-1-yl)-6-methyl-pyrimidin-4-yl]piperazin-1-yl]methyl]-6-methyl-morpholin-4-yl]quinoline-8-carbonitrile] |
| 30 | C[C@@H]1CN(c2ccc(C#N)c3ncccc23)C[C@H](CN2CCN(c3cccc(N[C@H]4CNC[C@H]4F)n3)CC2)O1 [Example 37, 5-[(2S,6R)-2-[[4-[6-[[(3S,4R)-4-fluoropyrrolidin-3-yl]amino]-2-pyridyl]piperazin-1-yl]methyl]-6-methyl-morpholin-4-yl]quinoline-8-carbonitrile] |
| 10 | C[C@@H]1CN(c2ccc(C#N)c3ncccc23)C[C@H](CN2CCN(c3nc(N4CCNCC4)nc4ccccc34)CC2)O1 [Example 49, 5-[(2R,6S)-2-methyl-6-[[4-(2-piperazin-1-ylquinazolin-4-yl)piperazin-1-yl]methyl]morpholin-4-yl]quinoline-8-carbonitrile] |
| 54 | C[C@@H]1CN(c2ccc(C#N)n3ncc(F)c23)C[C@H](CN2CCN(c3ccc(N4CC5(CCN5)C4)nc3)CC2)O1 [Example 179, 4-[(2S,6R)-2-[[4-[6-(1,6-diazaspiro[3.3]heptan-6-yl)-3-pyridyl]piperazin-1-yl]methyl]-6-methyl-morpholin-4-yl]-3-fluoro-pyrazolo[1,5-a]pyridine-7-carbonitrile] |
| 4 | Cc1cc(N2CCN(C[C@H]3CN(c4ccc(C#N)c5ncccc45)C[C@@H](C)O3)CC2)nc(NC2CNCC2C#N)n1 (stereo partly drawn) [Example 57, 5-[(2S,6R)-2-[[4-[2-[(4-cyanopyrrolidin-3-yl)amino]-6-methyl-pyrimidin-4-yl]piperazin-1-yl]methyl]-6-methyl-morpholin-4-yl]quinoline-8-carbonitrile] |
| 3 | C[C@@H]1CN(c2ccc(C#N)c3ncccc23)C[C@H](CN2CCN(c3ccnc(N4CCNCC4)n3)CC2)O1 [Example 15, 5-[(2R,6S)-2-methyl-6-[[4-(2-piperazin-1-ylpyrimidin-4-yl)piperazin-1-yl]methyl]morpholin-4-yl]quinoline-8-carbonitrile] |
| 4 | COc1cnc(N2CCNCC2)nc1N1CCN(C[C@H]2CN(c3ccc(C#N)c4ncccc34)C[C@@H](C)O2)CC1 [Example 48, 5-[(2S,6R)-2-[[4-(5-methoxy-2-piperazin-1-yl-pyrimidin-4-yl)piperazin-1-yl]methyl]-6-methyl-morpholin-4-yl]quinoline-8-carbonitrile] |
| 2 | Cc1cc(N2CCNCC2)nc(N2CCN(C[C@H]3CN(c4ccc(C#N)c5ncccc45)C[C@@H](C)O3)CC2)n1 [Example 68, 5-[(2R,6S)-2-methyl-6-[[4-(4-methyl-6-piperazin-1-yl-pyrimidin-2-yl)piperazin-1-yl]methyl]morpholin-4-yl]quinoline-8-carbonitrile] |
| 9 | Cc1cc(N2CCN(C[C@H]3CN(c4ccc(C(F)(F)F)c5nccnc45)C[C@@H](C)O3)CC2)nc(N2CCNCC2)n1 [Example 65, (2R,6S)-2-methyl-6-[[4-(6-methyl-2-piperazin-1-yl-pyrimidin-4-yl)piperazin-1-yl]methyl]-4-[8-(trifluoromethyl)quinoxalin-5-yl]morpholine] |
